Literature values, collected in patent US20090130187A1, “Covalent Conjugates of Cotton and Substitutes (Viscose, Modal Cotton) with Bioactive Substances Having Antiseptic, Sanitizing, Acaricidal and Insect Repellent Activity, and a Method for Obtaining Them” (priority 2006, published 2009).

System: rat

## Clc1nc(Cl)nc(Cl)n1 [2,4,6-tri-chloro 1,3,5 triazine]
  LD 50 (rat): 930 mg/kg
